Source: US20250282753A1, “COMPOUNDS USEFUL FOR REDUCING URIC ACID” (ATOM BIOSCIENCE AMERICA CORPORATION, priority 2022, published 2025)
Where a name gives a salt, the structure may show the parent alone.

Assays:
[1] = Pharmacokinetics of the compounds in SD rats (Example 36); type: in vivo; conditions: SD rat plasma
Description: Preparation of compound stock solution: An appropriate amount of compound solid powder was be weighed and added in a certain amount of DMSO, and vortex ultrasound to obtain a 10 mg/mL stock solution.
(§1) Preparation of test compound for gavage: respectively taking an appropriate amount of the compound stock solution, adding a certain amount of Solutol HS15 solution, vortexing for 1 minute, then adding a certain amount of physiological saline, and fully mixing to obtain a 1 mg/mL solution.
as §1, with “for intravenous injection:” for “for gavage:”, “mixing until uniform, so as” for “mixing”, “a 0.5” for “a 1”
The experimental animals were fasted overnight before gavage administration, and were given food 4 hours after administration, with free access to water. Each test compound was divided into two groups, namely intravenous administration group and oral administration group.
Blood samples (150 μL/sample) were collected from the jugular vein of SD rats before administration and at 5 min (only intravenous administration group), 15 min, 30 min, 1 h, 2 h, 4 h, 8 h and 24 h after administration, respectively. The samples were placed in centrifuge tubes containing anticoagulant sodium heparin and centrifuged at 4° C., 2000 g for 5 minutes to separate plasma. The plasma samples were analyzed by LC/MS/MS to detect the concentration of each test compound.
Non-compartmental model-related parameters were calculated by WinNonlin® Professional software.

[2] = system: potassium oxonate-induced hyperuricemic rats; assay: Serum uric acid in potassium oxonate-induced hyperuricemic rats, 3 days of gavage (Example 35); type: in vivo, SD rats; conditions: for serum uric acid level compared with the model group at the same time point: 2 mg/kg for 3 days; for Uric acid 0 h / Uric acid 1 h / Uric acid 3 h / Uric acid 5 h: serum, 2 mg/kg gavage for 3 days, mean ± SD; for Uric acid 0 h: day 3, 0 h, before potassium oxonate injection, n=6; for Uric acid 1 h: day 3, 1 h after potassium oxonate injection; for Uric acid 3 h: day 3, 3 h after potassium oxonate injection; for Uric acid 5 h: day 3, 5 h after potassium oxonate injection
Description: Compound 13 was a light yellow powder, and compounds 38 and 41 are pseudo-white powders, which are triturated with 0.5% CMC-Na just prior to use to prepare a 0.4 mg/mL suspension for gavage.
36 male SD rats weighed approximately 220-240 g after one week of adaptation. […] The drugs in each group were prepared into a corresponding concentration suspension, and the administration volume was 0.5 mL/100 g.
After the rats in each group were purchased and adapted to feeding, they were fasted for 12 h, and, intraperitoneally, injected with⋅ potassium⋅ gxonate at a⋅dose of 300 mg/kg to establish the model. 0.5 h after modeling, each test drug group was gavaged once. The drug was administered continuously for 3 days. On day 3, blood samples was collected from the retro-orbital venous plexus before and 1, 3, and 5 h after potassium oxonate injection. The samples were centrifuged at 3500 rpm for 10 min, and 30 μL of serum was collected to determine the uric acid level at each time point.
The measurement data of each test were expressed as (mean)±standard deviation). The comparison between groups used ANOVA-Dunnett T test to examine the significance. P<0.05 was used as the significance index, and P<0.01 was used as the extremely significant index.

[3] = system: potassium oxonate-induced hyperuricemic rats; assay: Serum uric acid in potassium oxonate-induced hyperuricemic rats, single gavage (Example 34); type: in vivo, SD rats; conditions: for serum uric acid level compared with the model group at the same time point: P<0.05; for Uric acid 0 h / Uric acid 1 h / Uric acid 3 h / Uric acid 5 h: serum, mean ± SD; for Uric acid 0 h: before potassium oxonate injection; for Uric acid 1 h: 1 h after potassium oxonate injection; for Uric acid 3 h: 3 h after potassium oxonate injection; for Uric acid 5 h: 5 h after potassium oxonate injection
Description: 36 male SD rats weighed approximately 200-230 g after one week of adaptation. […] The drugs in each group were prepared into a corresponding concentration suspension, and the administration volume was 0.5 mL/100 g.
After the rats in each group were purchased and adapted to feeding, they were fasted for 12 h, and intraperitoneally injected with potassium oxonate at a dose of 300 mg/kg to establish the model. After 0.5 h of model establishment, each test drug group was gavaged once. Blood was collected from the retro-orbital venous plexus before and 1, 3, and 5 h after potassium oxonate injection. The samples were centrifuged at 3500 rpm for 10 min. 30 μL of serum was collected to determine the uric acid level at each time point.
The measurement data of each test were expressed as (mean)+standard deviation). The comparison between groups used ANOVA-Dunnett T test to examine the significance. P<0.05 was used as the significance index, and P<0.01 was used as the extremely significant index.

[4] = Intravenous injection administration - 1 mg/kg
[5] = po, Gavage administration - 10 mg/kg
[6] = 1, 3, and 5 h after modeling, P<0.01 or P<0.05

Row | Structure (SMILES) | AUC(0-inf) [1, 4] [ng·h/mL] | Cmax [1, 4] [ng/mL] | MRT inf [1, 4] [h] | Tmax [1, 4] [h] | half-life [1, 4] [h] | AUC(0-inf) [1, 5] [ng·h/mL] | Cmax [1, 5] [ng/mL] | MRT inf [1, 5] [h] | Tmax [1, 5] [h] | half-life [1, 5] [h] | other results
1 | CCOC(=O)c1cnn(-c2ccc3c(c2)c(C#N)nn3C(C)C)c1 [Compound 2, ethyl 1-(3-cyano-1-isopropyl-1H-indazol-5-yl)-1H-pyrazole-4-carboxylate] | 1400 | 843 | 5.05 | 0.139 | 6.12 | 30100 | 4780 | 4.78 | 0.667 | 2.91 | –
2 | COC(=O)c1cnn(-c2ccc3c(c2)c(C#N)nn3C(C)C)c1 [Compound 5, methyl 1-(3-cyano-1-isopropyl-1H-indazol-5-yl)-1H-pyrazole-4-carboxylate] | 1490 | 554 | 8.38 | 0.25 | 7.45 | 25100 | 6750 | 3.17 | 1.17 | 3.78 | –
3 | CC(C)OC(=O)c1cnn(-c2ccc3c(c2)c(C#N)nn3C(C)C)c1 [Compound 7, isopropyl 1-(3-cyano-1-isopropyl-1H-indazol-5-yl)-1H-pyrazole-4-carboxylate] | 674 | 338 | 7.65 | 0.194 | 8.6 | 12900 | 2920 | 3.84 | 0.5 | 3.27 | –
4 | CC(C)=CCC/C(C)=C/CC/C(C)=C/COC(=O)c1cnn(-c2ccc3c(c2)c(C#N)nn3C(C)C)c1 [Compound 13, (3,7,11-trimethyldodecyl-2,6,10-trien-1-yl) 1-(3-cyano-1-isopropyl-1H-indazol-5-yl)-1H-pyrazole-4-carboxylate] | – | – | – | – | – | – | – | – | – | – | serum uric acid level compared with the model group at the same time point [2, 6]: significantly reduce; Uric acid 0 h [2]: 40.7 ± 4.4 µmol/L; Uric acid 1 h [2]: 42.1 ± 10.6 µmol/L; Uric acid 3 h [2]: 66.0 ± 10.7 µmol/L; Uric acid 5 h [2]: 75.0 ± 7.1 µmol/L
5 | COC(=O)c1ccnc(-c2ccc3c(c2)c(C#N)nn3C(C)C)c1 [Compound 19, methyl 2-(3-cyano-1-isopropyl-1H-indazol-5-yl) isonicotinate] | 776 | 518 | 6.46 | 0.25 | 8.78 | 25300 | 6170 | 2.86 | 0.667 | 2.33 | –
6 | Cc1oc(=O)oc1COC(=O)c1ccnc(-c2ccc3c(c2)c(C#N)nn3C(C)C)c1 [Compound 22, (5-methyl-2-oxo-1,3-dioxol-4-yl)methyl 2-(3-cyano-1-isopropyl-1H-indazol-5-yl) isonicotinate] | – | – | – | – | – | – | – | – | – | – | serum uric acid level compared with the model group at the same time point ([3]; 1.45 mg/kg group, 1 h after modeling): significantly reduce; serum uric acid level compared with the model group at the same time point ([3]; 2.9 mg/kg group, 1 and 5 h after modeling): significantly reduce; Uric acid 0 h ([3]; 1.45 mg/kg gavage once): 64.0 ± 13.1 µmol/L; Uric acid 1 h ([3]; 1.45 mg/kg gavage once): 88.1 ± 17.8 µmol/L; Uric acid 3 h ([3]; 1.45 mg/kg gavage once): 86.5 ± 11.5 µmol/L; Uric acid 5 h ([3]; 1.45 mg/kg gavage once): 78.1 ± 11.1 µmol/L; Uric acid 0 h ([3]; 2.90 mg/kg gavage once): 66.4 ± 7.0 µmol/L; Uric acid 1 h ([3]; 2.90 mg/kg gavage once): 88.3 ± 11.9 µmol/L; Uric acid 3 h ([3]; 2.90 mg/kg gavage once): 77.1 ± 13.2 µmol/L; Uric acid 5 h ([3]; 2.90 mg/kg gavage once): 70.9 ± 6.3 µmol/L
7 | CCOC(=O)OC(C)OC(=O)c1ccnc(-c2ccc3c(c2)c(C#N)nn3C(C)C)c1 (stereo not shown) [Compound 26, ethyl {1-[(ethoxycarbonyl)oxy]} 2-(3-cyano-1-isopropyl-1H-indazol-5-yl) isonicotinate] | 1290 | 1970 | 2.47 | 0.083 | 7.11 | 31000 | 5520 | 3.57 | 0.917 | 2.52 | –
8 | CC(=O)OCCOC(=O)c1ccnc(-c2ccc3c(c2)c(C#N)nn3C(C)C)c1 [Compound 28, (2-acetoxy)ethyl 2-(3-cyano-1-isopropyl-1H-indazol-5-yl) isonicotinate] | 947 | 712 | 4.31 | 0.083 | 8.21 | 15800 | 3150 | 3.55 | 2.17 | 2.93 | –
9 | COCCOC(=O)c1ccnc(-c2ccc3c(c2)c(C#N)nn3C(C)C)c1 [Compound 31, (2-methoxy)ethyl 2-(3-cyano-1-isopropyl-1H-indazol-5-yl) isonicotinate hydrobromide] | 1010 | 904 | 4.75 | 0.083 | 9.03 | 20900 | 4310 | 3.39 | 2 | 2.75 | –
10 | CC(C)n1nc(C#N)c2cc(-n3cc(C(=O)OCCCCO[N+](=O)[O-])cn3)ccc21 [Compound 38, [4-(nitrooxy)] butyl 1-(3-cyano-1-isopropyl-1H-indazol-5-yl)-1H-pyrazole-4-carboxylate] | – | – | – | – | – | – | – | – | – | – | serum uric acid level compared with the model group at the same time point [2, 6]: significantly reduce; Uric acid 0 h [2]: 51.7 ± 5.9 µmol/L; Uric acid 1 h [2]: 67.5 ± 19.3 µmol/L; Uric acid 3 h [2]: 69.0 ± 24.7 µmol/L; Uric acid 5 h [2]: 51.7 ± 6.7 µmol/L
11 | CC(C)n1nc(C#N)c2cc(-c3cc(C(=O)OCCCCO[N+](=O)[O-])ccn3)ccc21 [Compound 39, [4-(nitrooxy)] butyl 2-(3-cyano-1-isopropyl-1H-indazol-5-yl) isonicotinate] | 886 | 714 | 7.16 | 0.083 | 9.92 | 18300 | 3900 | 3.9 | 0.5 | 3.03 | –
12 | CC(C)n1nc(C#N)c2cc(-n3cc(C(=O)Oc4cccc(CO[N+](=O)[O-])c4)cn3)ccc21 [Compound 41, [3-(nitrooxy)methyl]phenyl 1-(3-cyano-1-isopropyl-1H-indazol-5-yl)-1H-pyrazole-4-carboxylate] | – | – | – | – | – | – | – | – | – | – | serum uric acid level compared with the model group at the same time point ([2]; 3 and 5 h after modeling, P<0.01): significantly reduce; Uric acid 0 h [2]: 50.6 ± 7.3 µmol/L; Uric acid 1 h [2]: 74.1 ± 16.5 µmol/L; Uric acid 3 h [2]: 72.2 ± 20.2 µmol/L; Uric acid 5 h [2]: 55.4 ± 14.9 µmol/L
13 | CC(C)n1nc(C#N)c2cc(-c3cc(C(=O)Oc4cccc(CO[N+](=O)[O-])c4)ccn3)ccc21 [Compound 42, [3-(nitrooxy)methyl]phenyl 2-(3-cyano-1-isopropyl-1H-indazol-5-yl) isonicotinate] | 767 | 2.82 | 3.37 | 0.083 | 6.44 | 8640 | 1510 | 4.12 | 1.58 | 2.91 | –
